# Data reported in patent US20250041206A1, “Injectable Suspensions” (ASARINA PHARMA AB, priority 2017, published 2025).
# Assay: Recovered dose from pre-filled syringes emptied through 27G needle after storage, not resuspended (gas chromatography)
# Assay type: physicochemical
# Settings: suspension in pre-filled syringes during storage
# Description: Filling weight was 0.5 g with the suspension having a density of about 0.95 g/mL.
# The syringes were stored horisontally at 5° C., 25° C./60% RH and 40° C./75% RH, respectively, for up to twelve months. […] The syringes were taken directly from storage and not resuspended, mixed or shaken before ejection and assaying.
smiles,measurement,value
CC(=O)[C@H]1CC[C@H]2[C@@H]3CC[C@H]4C[C@@H](O)CC[C@]4(C)[C@H]3CC[C@]12C [3-beta-hydroxy-5-alpha-pregnan-20-one],Primary particle size during storage,remained unchanged
